Test [1] deals with Streptococcus pneumoniae. Put plainly: In vitro antibacterial (ABMF) microdilution test, Streptococcus pneumoniae. It is filed as cell-based. The conditions noted are these: Mueller-Hinton broth, 37° C., 16-24 hours, read-out: ABMF minimal inhibitory conc, S. pneu. The text has this:
(§1) Still another test protocol is the in vitro antibacterial (ABMF) test which is a recognized standard microdilution susceptibility procedure in Mueller-Hinton broth against Gram-positive and Gram-negative bacterial test organisms. The procedure is a modification of a state-of-the-art procedure reported in Manual of Clinical Microbiology, Lennette, E. H., ed., by Barry, A. L. and C. Thornsberry at pages 463-474 and by Gavan, T. L. and A. L. Barry at pages 459-462, American Society for Microbiology, Washington, 1980.
(§2) In the test, a given bacterial culture is used to inoculate individual test wells of microdilution trays containing growth medium and test compound, the latter in a microdilution series: 1000, 333, 111, 37, 12, 4, 1.4, and 0.46 micrograms per milliliter. […] For convenience, values are reported for Escherichia coli, Corynebacterium Sp. ATCC 21698, Branhamella catarrhalis, Streptococcus pneumoniae, and Bacillus cereus.

Test [2] relates to Escherichia coli. Kind of test: In vitro antibacterial (ABMF) microdilution test, Escherichia coli. To be noted: Mueller-Hinton broth, 37° C., 16-24 hours, read-out: ABMF minimal inhibitory conc, E. coli. It is filed as cell-based.
Text: as §1, §2

Test [3] concerns Branhamella catarrhalis. Put plainly: In vitro antibacterial (ABMF) microdilution test, Branhamella catarrhalis. Type of test: cell-based. The conditions noted are these: Moraxella catarrhalis; Mueller-Hinton broth, 37° C., 16-24 hours; read-out: ABMF minimal inhibitory conc, B. cat.
Text: as §1, §2
In general terms: In broth dilution the organism is exposed to a series of concentrations in liquid medium.

Test [4] concerns Corynebacterium Sp. ATCC 21698. Kind of test: In vitro antibacterial (ABMF) microdilution test, Corynebacterium Sp. The conditions noted are these: ATCC21698, Mueller-Hinton broth, 37° C., 16-24 hours, read-out: ABMF minimal inhibitory conc, Coryn. Species. It is filed as cell-based.
Text: as §1, §2

Test [5] deals with lymphocytic leukemia P388. Put plainly: In vivo lymphocytic leukemia P388 test. Further details: species or system CD2 F1 mice. The conditions noted are these: Mus musculus, P388, ip, intraperitoneal, once daily for five days, survival time treated/control, read-out: P388 in vivo T/C × 100. The procedure: Another test protocol is the in vivo lymphocytic leukemia P388 test. the animals used are either male or female CD2 F1 mice, six or seven animals per test group. The tumor transplant is by intraperitoneal injection of dilute ascitic fluid containing cells of lymphocytic leukemia P388. The test compounds are administered intraperitoneally once daily for five consecutive days at various doses following tumor inoculation. The animals are weighed and survivors are recorded on a regular basis for 30 days. A compound is designated "toxic" if, at a given dose, all animals die prior to four days after the first injection of drug. A ratio of survival time for treated (T)/control (C) animals is calculated. A criterion for efficacy is a ratio T/C times 100 greater than or equal to 125. See Cancer Chemotherapy Reports, Part 3, 3, 1 (1972) for a comprehensive discussion of the protocol.

In test [6] the test system is Bacillus cereus. Kind of test: In vitro antibacterial (ABMF) microdilution test, Bacillus cereus. The conditions noted are these: Mueller-Hinton broth, 37° C., 16-24 hours, read-out: ABMF minimal inhibitory conc, B. cer. It is filed as cell-based.
Text: as §1, §2

The test system of test [7] is L1210 murine leukemia cell lines. Kind of test: In vitro antitumor screening (PDC test), L1210 murine leukemia cell growth. It is filed as cell-based. The conditions noted are these: Mus musculus, 72 h; L1210 cells, 37° C., three days; value is ID50 multiplied by 10^7. As to the method:
Another test protocol is the in vitro antitumor screening (PDC test) of compounds of the present invention on L1210 murine leukemia cell lines. L1210 cells, a murine leukemia cell line, were grown in RPMI 1640 supplemented with 5% fetal bovine serum and gentamicin (50 μg/ml).
Drug dilutions were prepared in the apropriate solvent and 20 μl of each dilution were added to 24-well Linbro tissue culture plats, followed by the addition of M 2.0 ml of cell suspension containing 3×10^4 cells per ml. Solvent and medium controls were included in each test. After incubation at 37° C. for three days in 5% CO2, the contents of each well were removed and the cells counted in a ZBI Coulter counter. Percent growth was calculated relative to the controls and the levels of drug activity wre expressed as ID50 in moles per liter using probit paper.

Counter-ions that a name gives are not always drawn. Some results are limits rather than exact numbers.

With `CCN(CC)CCNc1ccc([N+](=O)[O-])c2c1c(=O)c1cc(OC)ccc1n2C.CS(=O)(=O)O` [Example 31, 1-[[2-(Diethylamino)ethyl]amino]-7-methoxy-10-methyl-4-nitro-9(10H)-acridinone, methanesulfonate (1:1)], the MIC in test [1] was > 1000 µg/mL; in test [2], > 1000 µg/mL; in test [3], > 1000 µg/mL; in test [4] it was 1000 µg/mL; in test [6] it was > 1000 µg/mL. The response vs control in vivo at 100 mg/kg in test [5] is 128%. Further, in test [5], the response vs control in vivo at 200 mg/kg stood at 128%.
One may read the IC50 as the concentration needed to halve the response being measured. A higher IC50 goes with weaker potency in that assay. On to `CN(C)CCCNc1ccc([N+](=O)[O-])c2[nH]c3ccc(OC(=O)C(C)(C)C)cc3c(=O)c12` [Example 25, [8-[[3-(Dimethylamino)propyl]amino]-9,10-dihydro-5-nitro-9-oxo-2-acridinyl]-2,2-dimethylpropanoate, methanesulfonate (1:1), hemihydrate], for which the MIC in test [1] was found to be 333 µg/mL; in test [2], 111 µg/mL; in test [3], 333 µg/mL; in test [4], 333 µg/mL; in test [6] it was 111 µg/mL. 15 nM corresponded to half-maximal inhibition in test [7] (IC50). The response vs control in vivo at 1.56 mg/kg in test [5] (1.56 mg/kg) turned out to be 156%. Also, the response vs control in vivo at 3.12 mg/kg in test [5] (3.12 mg/kg) came to 173%. Further, the response vs control in vivo at 6.25 mg/kg in test [5] (6.25 mg/kg) was determined as 214%. Moreover, the response vs control in vivo at 12.5 mg/kg in test [5] (12.5 mg/kg) stood at 248%.
Take `CCN(CC)CCNc1ccc([N+](=O)[O-])c2[nH]c3cccc(O)c3c(=O)c12.CS(=O)(=O)O` [Example 29, 1-[[2-(Diethylamino)ethyl]amino]-8-hydroxy-4-nitro-9-(10H)-acridinone, methanesulfonate]: the MIC was < 0.46 µg/mL in test [1]; 1.4 µg/mL in test [2]; < 0.46 µg/mL in test [3]; < 0.46 µg/mL in test [4]; < 0.46 µg/mL in test [6]. In test [7], this compound gave an IC50 of 88 nM.
Regarding `CCN(CC)CCNc1ccc([N+](=O)[O-])c2[nH]c3cc(O)ccc3c(=O)c12.CS(=O)(=O)O` [Example 28, 1-[[2-(Diethylamino)ethyl]amino]-6-hydroxy-4-nitro-9(10H)acridinone, methanesulfonate (1:1)], the MIC in test [1] is < 0.46 µg/mL; in test [2], 1.4 µg/mL; in test [3], < 0.46 µg/mL; in test [4] it was < 0.46 µg/mL; in test [6], 1.4 µg/mL. Further, in test [7], inhibition was half-maximal at 360 nM (IC50).
For the compound `CCCCOc1ccc2[nH]c3c([N+](=O)[O-])ccc(NCCN(C)C)c3c(=O)c2c1.CS(=O)(=O)O` [Example 11, 7-Butoxy-1-[[2-(dimethylamino)ethyl]amino]-4-nitro-9(10H)-acridinone, methanesulfonate], the MIC in test [1], in test [2], in test [3], in test [4] and in test [6] was > 1000 µg/mL in each case. In test [7], this compound yielded a half-maximal inhibitory concentration (IC50) of 1600 nM. Besides, the response vs control in vivo at 25 mg/kg in test [5] is 130%. Also, the response vs control in vivo at 50 mg/kg in test [5] was 175%.
For the compound `CCN(CC)CCNc1ccc([N+](=O)[O-])c2[nH]c3ccc(OC)c(Cl)c3c(=O)c12` [Example 27, 1-Chloro-8-[[2-Diethylamino)ethyl]amino]-2-methoxy-5-nitro-9(10H)acridinone, methanesulfonate], the MIC in test [1] is 1.4 µg/mL; in test [2] it was 4.1 µg/mL; in test [3] it was 1.4 µg/mL; in test [4] it was < 0.46 µg/mL; in test [6], 4.1 µg/mL. The 50% inhibitory concentration (IC50) in test [7] was determined as 420 nM.
In the case of `CCN(CC)CCNc1ccc([N+](=O)[O-])c2[nH]c3ccccc3c(=O)c12.CS(=O)(=O)O` [Example 1, 1-[[2-(Diethylamino)ethyl]amino]-4-nitro-9-(10H)-acridinone, methanesulfonate (1:1)], the MIC in test [1] is < 0.46 µg/mL; in test [2], 12.3 µg/mL; in test [3], < 0.46 µg/mL; in test [4], < 0.46 µg/mL; in test [6], 12.3 µg/mL. Further, 450 nM corresponded to half-maximal inhibition in test [7] (IC50). Moreover, in test [5], the response vs control in vivo at 25 mg/kg was 145%. For the same compound, the response vs control in vivo at 50 mg/kg in test [5] worked out at 172%.
Regarding `CCN(CC)CCNc1ccc([N+](=O)[O-])c2c1c(=O)c1ccccc1n2C` [Example 30, 1-[[2-(Diethylamino)ethyl]amino]-10-methyl-4-nitro-9(10H)-acridinone, methanesulfonate (1:1), hydrate (1:1)], the MIC was 37 µg/mL in test [1]; 111 µg/mL in test [2]; 111 µg/mL in test [3]; 111 µg/mL in test [4]; 111 µg/mL in test [6]. The response vs control in vivo at 200 mg/kg in test [5] is 147%.
`COc1ccc2[nH]c3c([N+](=O)[O-])ccc(NCC[N+](C)(C)[O-])c3c(=O)c2c1` [Example 14, 1-[[2-(Dimethylamino)ethyl]amino]-7-methoxy-4-nitro-9(10H)-acridinone, N^ω -oxide, 3-chlorobenzoate salt]: the MIC in test [1] is < 0.46 µg/mL; in test [2], 12.3 µg/mL; in test [3], 12.3 µg/mL; in test [4], 1.4 µg/mL; in test [6], 333 µg/mL. In test [5], the response vs control in vivo at 50 mg/kg came to 157%.
Consider `CN(C)CCNc1ccc([N+](=O)[O-])c2c1c(=O)c1ccccc1n2C.CS(=O)(=O)O` [Example 32, 1-[[2-(Dimethylamino)ethyl]amino]-10-methyl-4-nitro-9(10H)-acridinone, methanesulfonate (1:1)], for which the MIC in test [1] was 12.3 µg/mL; in test [2] it was 37 µg/mL; in test [3] it was > 1000 µg/mL; in test [4], 333 µg/mL; in test [6], > 1000 µg/mL. The IC50 in test [7] was 3200 nM. Moreover, the response vs control in vivo at 50 mg/kg in test [5] was determined as 126%. The response vs control in vivo at 100 mg/kg in test [5] was found to be 146%.
On to `CCCCOc1ccc2[nH]c3c([N+](=O)[O-])ccc(NCCN(CC)CC)c3c(=O)c2c1.CS(=O)(=O)O` [Example 6, 7-Butoxy-1-[[2-(diethylamino)ethyl]amino]-4-nitro-9-(10H)-acridinone, methanesulfonate], for which the MIC in test [1], in test [2], in test [3], in test [4] and in test [6] was > 1000 µg/mL each time. Besides, in test [7], 580 nM corresponded to half-maximal inhibition (IC50). Further, in test [5], the response vs control in vivo at 25 mg/kg is 139%. Besides, in test [5], the response vs control in vivo at 50 mg/kg was 160%.

These data come from patent US4626540A, “Substituted 1-amino-4-nitro-acridinones and methods of treating bacterial infections and leukemia with them” (Warner-Lambert Company, priority 1984, dated 1986).
